# From US8519110B2, “mRNA cap analogs” (Board of Supervisors of Louisiana State University And …, priority 2008, dated 2013)
# Read-outs that look alike come from different tables or passages of the source.
# How the values were obtained:
# eIF4E = eIF4E (Mus musculus, UniProt P63073); assay: Binding affinity of cap analogs to eIF4E by fluorescence titration; conditions: equilibrium association constant; for Cap analog/eIF4E affinity (KAS): 20 °C, pH 7.2, ionic strength 150 mM
# Experimental: Fluorescence titration measurements were carried out on an LS-50B or LS-55 spectrofluorometer (Perkin Elmer Co.) at 20.0±0.2° C. in 50 mM HEPES/KOH (pH 7.2), 0.5 mM EDTA, and 1 mM DTT, with ionic strength adjusted to 150 mM by addition of KCl. Various cap analogue solutions, of increasing concentration, were added in 1 μl aliquots to 1.4 ml of 0.1 or 0.2 μM protein solutions. Fluorescence intensities were measured with excitation at 280 nm or 295 nm with 2.2 nm bandwidth, and detection at 337 nm with 4 nm bandwidth and a 290-nm cut-off filter. The data were corrected for sample dilution and inner filter effects. Equilibrium association constants (Kas) were determined by fitting the theoretical dependence of fluorescence intensity on cap analog concentration to the experimental data, as otherwise described in A. Niedźwiecka et al., “Biophysical studies of eIF4E cap-binding protein: recognition of mRNA 5′ cap structure and synthetic fragments of eIF4G and 4E-BP1 proteins,” J. Mol. Biol., vol. 312, pp. 615-635 (2002). The concentration of protein was allowed to be a free parameter in the equilibrium equation, to determine the amount of “active” protein. The final Kas was calculated as a weighted average of three to ten independent titrations, with the weights taken as the reciprocals of the squares of the numerical standard deviations. Numerical nonlinear least-square regression analysis was performed using ORGIN 6.0 (Microcal Software Inc., USA).
# The binding affinities of eukaryotic eIF4E for various cap analogs were determined by fluorescence quenching. This biophysical test allows one to predict the potential efficacy of cap analogs in translation. Those having higher affinities for eIF4E than the unmodified cap analog (m^7GpppG) are expected to be better recognized by the translational machinery, leading to higher translational efficiencies. They also are expected to compete more effectively with unmodified mRNA when free cap dinucleotides are used to inhibit translation. See generally E. Grudzien-Nogalska et al., “Synthesis of anti-reverse cap analogs (ARCAs) and their applications in mRNA translation and stability,” Methods Enzymol., vol. 431, pp. 203-227 (2007).
# [1] = target: cap-dependent translation of luciferase mRNA in reticulocyte lysate; assay: Inhibition of cap-dependent translation in vitro by free cap analogs; type: biochemical, rabbit
# Experimental: In vitro translation reactions were performed in 12.5 μl for 60 min at 30° C. under conditions favorable for cap-dependent translation. In some cases, the reaction mixture was incubated for 60 min at 30° C. prior to adding the dinucleotide cap analog (inhibitor) and m2^7,3′-OGppG-capped luciferase mRNA to start translation. In other cases, to analyze biological stability, the cap analog was incubated in the translation mixture for 60 min at 30° C. prior to adding the luciferase mRNA to start translation. A typical reaction mixture contained 56% reticulocyte lysate, the 20 “standard” amino acids (0.01 mM each), MgCl2 (1.2 mM), potassium acetate (170 mM), RiboLock Ribonuclease Inhibitor (0.32 U/μl), cap analog solution ( 1/10 of total reaction volume), and m2^7,3′-OGpppG-capped luciferase RNA. […] Reactions were performed with cap analog concentrations ranging from 0.12 to 100 μM. Luciferase activity was measured in a luminometer. […] The program OriginPro8 (OriginLab) was used for curve fitting with the equation qLUC=Z/(1+I/IC50)+N, where qLUC is the activity of luciferase synthesized in the presence of cap analog, Z is the activity of luciferase synthesized in the absence of cap analog, N is the activity of luciferase synthesized in a cap-independent manner, and I is the cap analog concentration.
# Two type of experiments were carried out. In one set of experiments (condition A), a cap analog was added to the translation system together with luciferase mRNA. In the other set of experiments (condition B), the cap analog was incubated in the translation system for 60 min before addition of mRNA. […] There was a correlation between the resistance to hydrolysis by DcpS and the stability of analogs in the translation system.
# Human DcpS = target: T1, Human DcpS (Homo sapiens, UniProt Q96C86); assay: Assay of susceptibility to DcpS (RP HPLC); type: biochemical
# T1 construct: made in house; host or cells: Escherichia coli
# T1 sequence (Q96C86 1-337): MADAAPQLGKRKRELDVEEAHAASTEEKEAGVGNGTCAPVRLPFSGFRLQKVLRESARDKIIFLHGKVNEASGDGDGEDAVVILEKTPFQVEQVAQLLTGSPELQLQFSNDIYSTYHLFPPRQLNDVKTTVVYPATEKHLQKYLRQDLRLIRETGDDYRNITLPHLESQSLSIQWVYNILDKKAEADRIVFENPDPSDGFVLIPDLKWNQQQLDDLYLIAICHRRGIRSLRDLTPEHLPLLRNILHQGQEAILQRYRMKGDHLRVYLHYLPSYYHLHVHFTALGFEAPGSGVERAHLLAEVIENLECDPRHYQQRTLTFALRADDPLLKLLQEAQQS
# Experimental: Human DcpS was expressed in Escherichia coli as described in L. Cohen et al., “Nematode m^7GpppG and m3^2,2,7GpppG decapping: activities in Ascaris embryos and characterization of C. elegans scavenger DcpS,” RNA, vol. 10, pp. 1609-1624 (2004). A 15 μM solution of the protein in 20 mM Tris buffer, pH 7.5, containing 50 mM KCl, 0.2 mM EDTA, 1 mM DTT, 0.5 mM PMSF, and 20% glycerol was stored at −80° C. until used. Enzymatic reactions were carried out at 30° C. in 500 μl of 50 mM Tris-HCl, pH 7.9, containing 20 mM MgCl2 and 60 mM (NH4)2SO4. A 40 μM solution of the selected cap analog was treated with 5.0 μl of DcpS for 120 min. At times of 10, 30, 60, and 120 min, a 100-μl sample was collected from the reaction mixture and deactivated by incubation at 90° C. for 2 min. Samples were analyzed without further treatment by analytical RP HPLC with a linear gradient of methanol in 0.1 M KH2PO4, pH 6.0, from 0-50% over 15 min.
# [2] = test system: rabbit reticulocyte lysate system; assay: In vitro translation efficiency of capped luciferase mRNA, method I transcripts; type: biochemical
# Experimental: A DNA template for in vitro transcription was synthesized by PCR from the plasmid SP6p-5′UTR β-globin-LUCiferase. The template contained the SP6 promoter followed by the 5′-UTR sequence of rabbit β-globin mRNA and the entire firefly luciferase mRNA coding region. A typical in vitro transcription reaction mixture (50 μl) contained SP6 transcription buffer (Fermentas, cat. no. EP0131), 2 μg of DNA template, 2 U/μl RiboLock Ribonuclease Inhibitor (Fermentas), 2 mM each of ATP, CTP, and UTP, 0.1 mM GTP, and 1 mM dinucleotide cap analog. The reaction mixture was incubated at 37° C. for 5 min before the addition of SP6 RNA polymerase (Fermentas) to a final concentration of 2 U/μl. After 30 min of incubation at 37° C., GTP was added to a final concentration of 1 mM, and the reaction continued for an additional 90 min. The reaction mixtures were then treated with 1 U of DNase RQ1 (RNAse-free, Promega) per μg of template DNA in transcription buffer at 37° C. for 20 min. RNA transcripts were purified on DEPC-treated Sephadex G-50 spin columns (Pharmacia). The integrity of transcripts was confirmed by electrophoresis on a non-denaturating, 1% agarose gel. Concentrations were determined spectrophotometrically. The transcripts were stored at −80° C. until used.
# (§1) A micrococcal nuclease-treated rabbit reticulocyte lysate system (Flexi Rabbit Reticulocyte Lysate System, Promega) was used for in vitro translation. Translation reactions were performed in 10 μl for 60 min at 30° C. A typical reaction mixture contained 40% reticulocyte lysate, the 20 “standard” amino acids (0.01 mM each), MgCl2 (1.2 mM), potassium acetate (170 mM), and mRNA (five different concentrations of each transcript, ranging from 0.25 to 4 μg/ml). Luciferase activity was measured in a luminometer (Glomax, Promega). Linear regression was used to fit the data points (luciferase activity versus concentration of mRNA transcript), and translational efficiency was defined as the slope of this line. The relative translational efficiencies of the test mRNAs were compared to that of m^7GpppG-capped luciferase mRNA, the latter being defined as 1.0.
# [3] = test system: rabbit reticulocyte lysate system; assay: In vitro translation efficiency of capped luciferase mRNA with 31-base poly(A) tail, method II transcripts; type: biochemical
# Experimental: Capped, polyadenylated luciferase mRNAs were synthesized in vitro by PCR from a dsDNA template that contained the SP6 promoter, the 5′-UTR sequence of rabbit β-globin mRNA, the entire firefly luciferase coding region, and 31 adenosine residues. A typical transcription reaction mixture (40 μl) contained SP6 transcription buffer (Fermentas), 0.7 ug of DNA template, 1 U/μl RiboLock Ribonuclease Inhibitor (Fermentas), 0.5 mM each of ATP, CTP, and UTP, 0.1 mM GTP, and 0.5 mM dinucleotide cap analog. The reaction mixture was incubated at 37° C. for 5 min before addition of SP6 RNA polymerase (Fermentas) to a final concentration of 1 U/μl, and incubation then continued for 45 min at 37° C. The reaction mixture was treated with DNase as in Method I. RNA transcripts were purified with NucAway Spin Columns (Ambion). The integrity of transcripts and quantitation was performed as in Method I.
# as §1
# [4] = cap analog added together with luciferase mRNA, read-out: Inhibition of in vitro translation (IC50), condition A
# [5] = cap analog incubated in translation system 60 min before addition of mRNA, read-out: Inhibition of in vitro translation (IC50), condition B
# [6] = 40 μM cap analog, 30° C., up to 120 min
# Sequence of eIF4E (P63073 28-217 limits assumed): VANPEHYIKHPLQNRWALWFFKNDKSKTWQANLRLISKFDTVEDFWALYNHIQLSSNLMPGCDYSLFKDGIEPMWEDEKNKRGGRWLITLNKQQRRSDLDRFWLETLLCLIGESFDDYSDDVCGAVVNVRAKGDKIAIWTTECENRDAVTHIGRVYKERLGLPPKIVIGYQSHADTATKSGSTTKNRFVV
Structure (SMILES),Cap analog/eIF4E affinity (KAS) (eIF4E) [μM^−1],"IC50 [1, 4] [µM]","IC50 [1, 5] [µM]",Susceptibility to DcpS (Human DcpS; [6]),Cap analog-eIF4E affinity (KAS) (eIF4E; Table 3) [μM^−1],"Translation efficiency in comparison with m^7GpppG-LUC mRNA, Experiment No. 1 ([2]; experiment 1)","Translation efficiency in comparison with m^7GpppG-LUC mRNA, Experiment No. 2 ([2]; experiment 2)","Translation efficiency in comparison with m^7GpppG-LUC mRNA, Experiment No. 3 ([2]; experiment 3)","Translation efficiency in comparison with m^7GpppG-LUC mRNA, Experiment No. 4 ([2]; experiment 4)","Translation efficiency in comparison with m^7GpppG-LUC mRNA, Mean ([2]; mean of experiments)","In vitro translational efficiency, method I ([2]; relative to m^7GpppG-capped luciferase mRNA = 1.0)",Susceptibility to DcpS (Human DcpS; Table 3),"In vitro translational efficiency (method II) ([3]; Table 3, relative to m^7GpppG-capped mRNA = 1.0)","Translation efficiency in comparison to m^7GpppG-LUC-(A)31 mRNA, Experiment No. 1 ([3]; experiment 1)","Translation efficiency in comparison to m^7GpppG-LUC-(A)31 mRNA, Experiment No. 2 ([3]; experiment 2)","Translation efficiency in comparison to m^7GpppG-LUC-(A)31 mRNA, Experiment No. 3 ([3]; experiment 3)","Translation efficiency in comparison to m^7GpppG-LUC-(A)31 mRNA, Experiment No. 4 ([3]; experiment 4)","Translation efficiency in comparison to m^7GpppG-LUC-(A)31 mRNA, Experiment No. 5 ([3]; experiment 5)","Translation efficiency in comparison to m^7GpppG-LUC-(A)31 mRNA, Mean ([3]; mean of experiments)"
"[BH3-]P(=O)(OP(=O)(O)OCC1OC(n2cnc3c(=O)[nH]c(N)nc32)C(O)C1O)OP(=O)(O)OCC1OC(n2c[n+](C)c3c(=O)[nH]c(N)nc32)C(O)C1O (single isomer, unassigned) [m^7GppBH3pG (D2), m^7GppBH3pG]",13.0 ± 0.2,4.5 ± 0.5,3.5 ± 0.9,resistant,,,,,,,,,,,,,,,
"[BH3-]P(=O)(OC[C@H]1O[C@@H](n2cnc3c(=O)[nH]c(N)nc32)[C@H](O)[C@@H]1O)OP(=O)(O)OP(=O)(O)OC[C@H]1O[C@@H](n2c[n+](C)c3c(=O)[nH]c(N)nc32)[C@H](O)[C@@H]1O (single isomer, unassigned) [m^7GpppBH3G (D1), m^7GpppBH3G]",14.5 ± 0.2,3.2 ± 0.3,9.2 ± 1.9,hydrolyzed,,,,,,,,,,,,,,,
"CO[C@H]1[C@@H](O)[C@H]([n+]2cn(C)c3c(=O)[nH]c(N)nc32)O[C@@H]1COP(=O)([O-])OP(=O)(O)OP(=O)(O)OC[C@H]1O[C@@H](n2cnc3c(=O)[nH]c(N)nc32)[C@H](O)[C@@H]1O [m2^7,3′-OGpppG, 7-methyl(3′-O-methyl)GpppG, reference compound]",10.2 ± 0.3,,,hydrolyzed,10.2 ± 0.3,2.53,2.92,2.96,2.50,2.73,2.73 ± 0.25,hydrolyzed,1.82 ± 0.20,1.98,1.66,1.61,1.77,2.08,1.82
